# Like-named read-outs stand apart in the source and are kept apart here.
# Target: T1, PD-1/PD-L1 (Homo sapiens, UniProt Q9NZQ7)
# T1 construct: made in house; host or cells: HEK293T
# Experiment: PD-1/PD-L1 Homogenous Time-Resolved Fluorescence (HTRF) binding assay
# Settings: PD-L1-His 10 nM, PD-1-Ig 20 nM, read-out: Range or IC50
# Summary of the method: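 Binding was measured by HTRF in dPBS with 0.1% BSA and 0.05% Tween-20. Detection used europium cryptate anti-Ig (1 nM final) and APC anti-His (20 nM final) added over the binding reaction.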
# T1 sequence (Q9NZQ7 with tags, fused parts or gaps): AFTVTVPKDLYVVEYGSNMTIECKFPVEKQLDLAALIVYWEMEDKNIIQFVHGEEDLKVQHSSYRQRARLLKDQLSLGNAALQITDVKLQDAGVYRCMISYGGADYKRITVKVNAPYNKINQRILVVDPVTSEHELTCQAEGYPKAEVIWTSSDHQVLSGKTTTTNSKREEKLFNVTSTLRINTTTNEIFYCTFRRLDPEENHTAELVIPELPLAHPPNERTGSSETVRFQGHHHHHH
SMILES,IC50 (value given as range class),IC50 (numeric IC50)
"CNC(=O)c1cccc(-c2cccc(COc3cc(OCc4cncc(C#N)c4)c(CN4C[C@@H](O)C[C@H]4C(=O)O)cc3Cl)c2C)c1C [Example 4014, (2S,4S)-1-(5-chloro-2-((5-cyanopyridin-3-yl)methoxy)-4-((2,2′-dimethyl-3′-(methylcarbamoyl)-[1,1′-biphenyl]-3-yl)methoxy)benzyl)-4-hydroxypyrrolidine-2-carboxylic Acid]",2010 to 10000 nM,–
"Cc1c(COc2cc(OCc3cncc(C#N)c3)c(CN3CCCC[C@H]3C(=O)O)cc2Cl)cccc1-c1cccc(C(=O)NCCN2CCCC2)c1C [Example 4002, (S)-1-(5-chloro-2-((5-cyanopyridin-3-yl)methoxy)-4-((2,2′-dimethyl-3′-((2-(pyrrolidin-1-yl)ethyl)carbamoyl)-[1,1′-biphenyl]-3-yl)methoxy)benzyl)piperidine-2-carboxylic Acid]",10 to 100 nM,–
"Cc1c(COc2cc(OCc3cncc(C#N)c3)c(CNC(CO)CO)cc2Cl)cccc1-c1cccc(C(=O)N(C)C)c1C [Example 4034, 3′-((2-chloro-5-((5-cyanopyridin-3-yl)methoxy)-4-(((1,3-dihydroxypropan-2-yl)amino)methyl)phenoxy)methyl)-N,N,2,2′-tetramethyl-[1,1′-biphenyl]-3-carboxamide]",10 to 100 nM,–
"Cc1cc(OCc2cccc(-c3cccc(OCCCN4CC[C@@H](O)C4)c3C)c2C)c(Cl)cc1CN1CCCC[C@H]1C(=O)O [Example 4523, (S)-1-(5-chloro-4-((3′-(3-((R)-3-hydroxypyrrolidin-1-yl)propoxy)-2,2′-dimethyl-[1,1′-biphenyl]-3-yl)methoxy)-2-methylbenzyl)piperidine-2-carboxylic Acid]",0.21 to 10 nM,–
"Cc1c(COc2cc(OCc3cncc(C#N)c3)c(C(C)NC(CO)CO)cc2Cl)cccc1-c1cccc(OCCCN2CC[C@@H](O)C2)c1C (stereo partly drawn) [Example 4137, 5-((4-chloro-2-(1-((1,3-dihydroxypropan-2-yl)amino)ethyl)-5-((3′-(3-((R)-3-hydroxypyrrolidin-1-yl)propoxy)-2,2′-dimethyl-[1,1′-biphenyl]-3-yl)methoxy)phenoxy)methyl)nicotinonitrile]",–,3 nM
"Cc1c(COc2cc(OCc3cncc(C#N)c3)c(CN3CCCC[C@H]3C(=O)O)cc2Cl)cccc1-c1cccc(OCCCN2CC3CC2CO3)c1C (stereo partly drawn) [Example 2249, (2S)-1-(4-((3′-(3-(2-oxa-5-azabicyclo[2.2.1]heptan-5-yl)propoxy)-2,2′-dimethylbiphenyl-3-yl)methoxy)-5-chloro-2-((5-cyanopyridin-3-yl)methoxy)benzyl)piperidine-2-carboxylic Acid]",0.21 to 10 nM,–
"Cc1c(COc2cc(OCc3cncc(C#N)c3)c(CNC(C)(CO)CO)cc2Cl)cccc1-c1cccc(OCCC(=O)NC[C@H](O)CO)c1Cl [Example 2118, (S)-3-((2-chloro-3′-((2-chloro-5-((5-cyanopyridin-3-yl)methoxy)-4-(((1,3-dihydroxy-2-methylpropan-2-yl)amino)methyl)phenoxy)methyl)-2′-methyl-[1,1′-biphenyl]-3-yl)oxy)-N-(2,3-dihydroxypropyl)propanamide]",0.21 to 10 nM,–
"Cc1c(COc2cc(OCc3cncc(C#N)c3)c(CN3CCCC[C@H]3C(=O)O)cc2Cl)cccc1-c1cccc(OCCCN2CCC(N(C)C(=O)OC(C)(C)C)CC2)c1C [Example 2246, (2S)-1-(4-((3′-(3-(4-(tert-butoxycarbonyl(methyl)amino)piperidin-1-yl)propoxy)-2,2′-dimethylbiphenyl-3-yl)methoxy)-5-chloro-2-((5-cyanopyridin-3-yl)methoxy)benzyl)piperidine-2-carboxylic Acid]",0.21 to 10 nM,–
"Cc1c(COc2cc(OCc3cncc(C#N)c3)c(CN3CCCC[C@H]3C(=O)O)cc2Cl)cccc1-c1cccc(OCCCN2CCC(N3CCOCC3)CC2)c1C [Example 2248, (2S)-1-(5-chloro-2-((5-cyanopyridin-3-yl)methoxy)-4-((2,2′-dimethyl-3′-(3-(4-morpholinopiperidin-1-yl)propoxy)biphenyl-3-yl)methoxy)benzyl)piperidine-2-carboxylic Acid]",0.21 to 10 nM,–

# Results, then the compound that gave them:
IC50 (value given as range class),IC50 (numeric IC50),SMILES
0.21 to 10 nM,–,"Cc1c(COc2cc(OCc3cncc(C#N)c3)c(CNC(C)(CO)CO)cc2Cl)cccc1-c1cccc(OCCCN2CCCCC2)c1C [Example 2287, 5-((4-chloro-2-(((1,3-dihydroxy-2-methylpropan-2-yl)amino)methyl)-5-((2,2′-dimethyl-3′-(3-(piperidin-1-yl)propoxy)-[1,1′-biphenyl]-3-yl)methoxy)phenoxy)methyl)nicotinonitrile]"
0.21 to 10 nM,–,"CC(=O)N[C@@H]1CCN(CCCOc2cccc(-c3cccc(COc4cc(OCc5cncc(C#N)c5)c(CN[C@](C)(CO)C(=O)O)cc4Cl)c3C)c2Cl)C1 [Example 2022, (R)-2-((4-((3′-(3-((R)-3-acetamidopyrrolidin-1-yl)propoxy)-2′-chloro-2-methyl-[1,1′-biphenyl]-3-yl)methoxy)-5-chloro-2-((5-cyanopyridin-3-yl)methoxy)benzyl)amino)-3-hydroxy-2-methylpropanoic Acid]"
0.21 to 10 nM,–,"Cc1c(COCCN2CC[C@@H](O)C2)cccc1-c1cccc(COc2cc(OCc3cncc(C#N)c3)c(CN[C@@](C)(CO)C(=O)O)cc2Cl)c1C [Example 4123, (S)-2-((5-chloro-2-((5-cyanopyridin-3-yl)methoxy)-4-((3′-((2-((R)-3-hydroxypyrrolidin-1-yl)ethoxy)methyl)-2,2′-dimethyl-[1,1′-biphenyl]-3-yl)methoxy)benzyl)amino)-3-hydroxy-2-methylpropanoic Acid]"
0.21 to 10 nM,–,"CC(=O)NC1CCN(CCCOc2cccc(-c3cccc(COc4cc(OCc5cncc(C#N)c5)c(CN[C@](C)(CO)C(=O)O)cc4Cl)c3C)c2Cl)C1 (stereo partly drawn) [Example 2019, (2R)-2-((4-((3′-(3-(3-acetamidopyrrolidin-1-yl)propoxy)-2′-chloro-2-methyl-[1,1′-biphenyl]-3-yl)methoxy)-5-chloro-2-((5-cyanopyridin-3-yl)methoxy)benzyl)amino)-3-hydroxy-2-methylpropanoic Acid]"
0.21 to 10 nM,–,"Cc1c(COc2cc(OCc3cncc(C#N)c3)c(CN3CCCC[C@H]3C(=O)O)cc2Cl)cccc1-c1cccc(OCCCN2CCCCC2CC(=O)O)c1C (stereo partly drawn) [Example 2251, (2S)-1-(4-((3′-(3-(2-(carboxymethyl)piperidin-1-yl)propoxy)-2,2′-dimethylbiphenyl-3-yl)methoxy)-5-chloro-2-((5-cyanopyridin-3-yl)methoxy)benzyl)piperidine-2-carboxylic Acid]"
0.21 to 10 nM,–,"Cc1c(COc2cc(OCc3cncc(S(C)(=O)=O)c3)c(CNC(C)(CO)CO)cc2Cl)cccc1-c1cccc(OCCCN2CC[C@@H](O)C2)c1C [Example 1533, (R)-2-((5-chloro-4-((3′-(3-(3-hydroxypyrrolidin-1-yl)propoxy)-2,2′-dimethyl-[1,1′-biphenyl]-3-yl)methoxy)-2-((5-(methylsulfonyl)pyridin-3-yl)methoxy)benzyl)amino)-2-methylpropane-1,3-diol]"
0.21 to 10 nM,–,"CC(CO)(CO)NCc1cc(Cl)c(OCc2cccc(-c3cccc(OCCCNC[C@H](O)CO)c3Cl)c2Cl)cc1OCc1cccc(C#N)c1 [Example 2060, (S)-3-((4-chloro-5-((2,2′-dichloro-3′-(3-((2,3-dihydroxypropyl)amino)propoxy)-[1,1′-biphenyl]-3-yl)methoxy)-2-(((1,3-dihydroxy-2-methylpropan-2-yl)amino)methyl)phenoxy)methyl)benzonitrile]"
0.21 to 10 nM,–,"COC(=O)C1(O)CCN(CCCOc2cccc(-c3cccc(COc4cc(OCc5cncc(C#N)c5)c(CN[C@H](CO)C(=O)O)cc4Cl)c3C)c2C)CC1 [Example 1029, (R)-2-((5-chloro-2-((5-cyanopyridin-3-yl)methoxy)-4-((3′-(3-(4-hydroxy-4-(methoxycarbonyl)piperidin-1-yl)propoxy)-2,2′-dimethyl-[1,1′-biphenyl]-3-yl)methoxy)benzyl)amino)-3-hydroxypropanoic Acid]"
0.21 to 10 nM,–,"Cc1c(COc2cc(OCc3cncc(C#N)c3)c(CN(C)[C@@](C)(CO)C(=O)O)c(C)c2Cl)cccc1-c1cccc(OCCCN2CC[C@@H](O)C2)c1C [Example 4100, (S)-2-((3-chloro-6-((5-cyanopyridin-3-yl)methoxy)-4-((3′-(3-((R)-3-hydroxypyrrolidin-1-yl)propoxy)-2,2′-dimethyl-[1,1′-biphenyl]-3-yl)methoxy)-2-methylbenzyl)(methyl)amino)-3-hydroxy-2-methylpropanoic Acid]"
0.21 to 10 nM,–,"Cc1c(COc2cc(OCc3cncc(C(N)=O)c3)c(CN[C@](C)(CO)C(=O)O)cc2Cl)cccc1-c1cccc(OCCCN2CCC(CO)(C(=O)O)CC2)c1C [Example 1113, (R)-1-(3-((3′-((5-((5-carbamoylpyridin-3-yl)methoxy)-4-(((2-carboxy-1-hydroxypropan-2-yl)amino)methyl)-2-chlorophenoxy)methyl)-2,2′-dimethyl-[1,1′-biphenyl]-3-yl)oxy)propyl)-4-(hydroxymethyl)piperidine-4-carboxylic Acid]"
0.21 to 10 nM,–,"CCCC[C@H](NCc1cc(Cl)c(OCc2cccc(-c3cccc(OCCCN4CC[C@@H](O)C4)c3C)c2C)cc1OCc1cncc(C#N)c1)C(=O)O [Example 4151, (S)-2-((5-chloro-2-((5-cyanopyridin-3-yl)methoxy)-4-((3′-(3-((R)-3-hydroxypyrrolidin-1-yl)propoxy)-2,2′-dimethyl-[1,1′-biphenyl]-3-yl)methoxy)benzyl)amino)hexanoic Acid]"
0.21 to 10 nM,–,"Cc1c(COc2cc(OCc3cncc(C#N)c3)c(CNC(CO)(CO)CO)cc2Cl)cccc1-c1cccc(OCCCNC[C@H](O)CO)c1C [Example 2282, (S)-5-((4-chloro-2-(((1,3-dihydroxy-2-(hydroxymethyl)propan-2-yl)amino)methyl)-5-((3′-(3-((2,3-dihydroxypropyl)amino)propoxy)-2,2′-dimethyl-[1,1′-biphenyl]-3-yl)methoxy)phenoxy)methyl)nicotinonitrile]"

# Source: patent US10745382B2 (BRISTOL-MYERS SQUIBB COMPANY, priority 2015, dated 2020)
